We go through one molecule from patent publication US12721870B2 (priority 2021, dated 2026).

The structures appear in SMILES notation. “And” between values parts separate entries of the source, which are not always exact repeats. Identical values can stand only once.

The test system of assay [1] is splenocytes. Put plainly: Cell viability of splenocytes from CPP-induced animal model (WST). The format is in vivo. The following applies: mice, 150 mg/kg CPP only, splenocytes incubated 48 hours. As to the method: To measure the cell viability of splenocytes, a collection of cells involved in various cellular immunity, splenocytes from each mouse were seeded in a 96-well plate at 1×10^4 cells/well and then incubated in a 37° C. CO2 incubator for 48 hours. Next, the splenocytes were treated with WST to measure cell viability.

Assay [2] relates to cyclophosphamide (CPP)-induced animal model. Nature of the assay: Antibodies in blood of CPP-induced animal model (ELISA). Type of assay: in vivo. The following applies: mice, 150 mg/kg CPP only, serum ELISA. As to the method: (§1) The blood of a CPP-induced animal model was reacted at room temperature for two hours and then centrifuged at 4000 rpm for 10 minutes to isolate serum. The secretion amounts of IgG, IgA, and IgM were measured from the isolated serum using an ELISA kit (Thermo, US).

The test system of assay [3] is natural killer cells (NK cells). Put plainly: Cytotoxicity of NK cells from CPP-induced animal model (LDH, YAC-1 cells). As to conditions: mice, 150 mg/kg CPP only, YAC-1 cells: splenocytes 1:50, four hours.
Experimental: The test was performed in the following four groups with seven mice per group: a normal control (NC), a group treated with 150 mg/kg of CPP, a group treated with 1×10^9 CFU/mouse (10^9 CFU) ATG-V5 (V5 strain), and a group treated with 1×10^10 CFU/mouse (V5 10^10 CFU) ATG-V5 (V5 strain).
To measure the cytotoxicity of natural killer cells (NK cells), the spleen was isolated from a CPP-induced animal model, and then the tissue was ground to obtain splenocytes. Next, the splenocytes were mixed with YAC-1 cells in a ratio of the YAC-1 cells: the splenocytes of 1:50 and then incubated in a CO2 incubator at 37° C. for four hours. The amount of LDH was measured using an LDH-cell cytotoxicity assay kit.
In assay [4] the test system is cyclophosphamide (CPP)-induced animal model. Nature of the assay: Cytokines in blood of CPP-induced animal model (ELISA). Type of assay: in vivo. The following applies: mice, 150 mg/kg CPP only, serum ELISA; tendency. As to the method: as §1
In addition, enzyme-linked immunosorbent assay (ELISA) for IL-6, IL-2, IL-10, and IL-4 was performed using the serum.

In assay [5] the test system is Th1, Th2, Th17, and Treg cells. Put plainly: T cell subset marker mRNA in splenocytes of CPP-induced animal model (qPCR). The format is in vivo. The following applies: mice, 150 mg/kg CPP only. As to the method: In addition, RNA was isolated from the splenocytes at 2×10^6 cells/sample using a TRIZOL® reagent (Thermo, US), and cDNA was synthesized using ACCUPOWER® RT PreMix & Master Mix (Bioneer, KO). To confirm changes in differentiation of Th1, Th2, Th17, and Treg cells, T cell subsets, using the synthesized cDNA and ACCUPOWER® GreenStar™ qPCR PreMix (Bioneer, KO), expression levels of TBX21, GATA3, RORγt, IL-17A, Foxp3, and CTLA-4 mRNA in these cells were measured.
(In general: In qPCR the cycle at which signal appears reflects the starting amount.)

Assay [6] has as its system cyclophosphamide (CPP)-induced animal model. Put plainly: Thymus and spleen weight in CPP-induced animal model. The format is in vivo. As to conditions: mice. As to the method: To confirm the immunity-enhancing efficacy of the V5 strain in a cyclophosphamide (CPP)-induced animal model, tests were performed for each concentration of the V5 strain. Cyclophosphamide (CPP) is an anticancer drug widely used for all types of cancers, sarcomas, leukemia, and malignant lymphoma, and is a non-specific immunosuppressant. […] When CPP suppresses immunity, the weight of the thymus, an immune tissue, and the number of thymocytes are reduced, and the spleen weight is increased as a result of a defense mechanism against immunosuppression.
To confirm the effect of the V5 strain on the weight of the thymus and spleen of a CPP-induced animal model, the weight of the thymus and spleen of the animal model was measured.

For the molecule `O=P1(N(CCCl)CCCl)NCCCO1` (stereo not drawn) [CPP, cyclophosphamide], the “Cell viability of splenocytes” value in assay [1] was 99.98%. Moreover, in assay [2], the “Secretion amount of IgA in the blood” value is given as “reduced”, the “Secretion amount of IgG in the blood” value is given as “reduced” and the “Secretion amount of IgM in the blood” value was “failed to cause changes”. Further, the “Cytotoxicity of NK cells” value in assay [3] amounted to 144%. For the same molecule, the “Cytokines in the blood (IL-6, IL-2, IL-10, IL-4)” value in assay [4] is “reduced”. Moreover, the “Overall number of T cell subsets (mRNA in splenocytes)” value in assay [5] is given as “suppressing”. In addition, the Thymus weight in assay [6] (group treated with 150 mg/kg of CPP only (normal control 0.061 g), 150 mg/kg) is 0.03 g and 0.031 g. In addition, the Spleen weight in assay [6] (group treated with 150 mg/kg of CPP only (normal control 0.105 g)) worked out at 0.170 g.
